Experimental data reported in PMC5761851, “Application of a phenotypic drug discovery strategy to identify biological and chemical starting points for inhibition of TSLP production in lung epithelial cells” (PLoS ONE, 2018).

Experiments:
Assay in all cases: kinase selectivity panel
Format in all cases: biochemical
[1] = target: T1, PRAK (Homo sapiens, UniProt Q8IW41); conditions: read-out: percentage of control activity (POC), PRAK
T1 construct: purchased Eurofins Pharma Discovery Services (KinaseProfiler; Cerep BioPrint panel)
T1 sequence (Q8IW41 1-473): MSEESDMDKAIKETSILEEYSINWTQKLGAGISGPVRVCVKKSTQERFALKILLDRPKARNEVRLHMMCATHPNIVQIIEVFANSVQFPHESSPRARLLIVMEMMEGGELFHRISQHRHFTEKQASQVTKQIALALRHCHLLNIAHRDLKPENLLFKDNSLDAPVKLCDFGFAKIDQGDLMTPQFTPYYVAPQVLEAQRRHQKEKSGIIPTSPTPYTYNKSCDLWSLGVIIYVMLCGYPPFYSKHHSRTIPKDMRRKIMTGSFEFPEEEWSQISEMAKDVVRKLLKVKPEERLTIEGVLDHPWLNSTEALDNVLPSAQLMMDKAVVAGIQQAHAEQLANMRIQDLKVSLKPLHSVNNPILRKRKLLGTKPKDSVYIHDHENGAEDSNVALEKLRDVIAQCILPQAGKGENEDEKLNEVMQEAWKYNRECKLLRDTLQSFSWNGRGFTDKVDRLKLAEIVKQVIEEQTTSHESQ
Outline: (§1)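 Tested at 10 μM in duplicate within a panel of 125 representative kinases. For selected activities, IC50 values were then determined from 9 concentrations, each run in duplicate.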

[2] = target: T2, Axl (Homo sapiens, UniProt P30530); conditions: read-out: percentage of control activity (POC), Axl
T2 construct: purchased Eurofins Pharma Discovery Services (KinaseProfiler; Cerep BioPrint panel)
T2 sequence (P30530 26-894): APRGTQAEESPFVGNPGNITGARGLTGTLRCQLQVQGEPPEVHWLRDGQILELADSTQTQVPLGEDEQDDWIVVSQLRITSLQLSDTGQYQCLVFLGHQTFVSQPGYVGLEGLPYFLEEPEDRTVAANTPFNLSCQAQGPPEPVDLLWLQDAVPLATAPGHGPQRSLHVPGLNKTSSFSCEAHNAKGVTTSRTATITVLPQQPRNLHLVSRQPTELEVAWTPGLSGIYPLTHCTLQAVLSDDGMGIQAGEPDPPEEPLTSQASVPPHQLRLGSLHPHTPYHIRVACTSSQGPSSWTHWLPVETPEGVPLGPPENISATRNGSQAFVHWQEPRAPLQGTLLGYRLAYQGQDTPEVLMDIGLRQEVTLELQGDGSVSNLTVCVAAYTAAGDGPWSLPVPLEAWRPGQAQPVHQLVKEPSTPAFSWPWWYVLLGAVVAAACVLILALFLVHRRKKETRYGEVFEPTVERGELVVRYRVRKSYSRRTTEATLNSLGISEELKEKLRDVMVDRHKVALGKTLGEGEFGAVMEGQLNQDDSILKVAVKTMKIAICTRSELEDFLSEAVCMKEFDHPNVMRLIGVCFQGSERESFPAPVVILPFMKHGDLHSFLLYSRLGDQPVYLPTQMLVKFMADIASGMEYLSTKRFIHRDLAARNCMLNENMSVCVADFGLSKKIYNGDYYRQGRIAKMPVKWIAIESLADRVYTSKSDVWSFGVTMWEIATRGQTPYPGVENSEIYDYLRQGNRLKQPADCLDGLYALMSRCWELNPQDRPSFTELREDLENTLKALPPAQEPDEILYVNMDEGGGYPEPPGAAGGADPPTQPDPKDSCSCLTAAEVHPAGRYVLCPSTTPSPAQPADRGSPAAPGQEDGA
Outline: as §1

[3] = target: T3, PDK1 (Homo sapiens, UniProt O15530); conditions: read-out: percentage of control activity (POC), PDK1
T3 construct: purchased Eurofins Pharma Discovery Services (KinaseProfiler; Cerep BioPrint panel)
T3 sequence (O15530 1-556): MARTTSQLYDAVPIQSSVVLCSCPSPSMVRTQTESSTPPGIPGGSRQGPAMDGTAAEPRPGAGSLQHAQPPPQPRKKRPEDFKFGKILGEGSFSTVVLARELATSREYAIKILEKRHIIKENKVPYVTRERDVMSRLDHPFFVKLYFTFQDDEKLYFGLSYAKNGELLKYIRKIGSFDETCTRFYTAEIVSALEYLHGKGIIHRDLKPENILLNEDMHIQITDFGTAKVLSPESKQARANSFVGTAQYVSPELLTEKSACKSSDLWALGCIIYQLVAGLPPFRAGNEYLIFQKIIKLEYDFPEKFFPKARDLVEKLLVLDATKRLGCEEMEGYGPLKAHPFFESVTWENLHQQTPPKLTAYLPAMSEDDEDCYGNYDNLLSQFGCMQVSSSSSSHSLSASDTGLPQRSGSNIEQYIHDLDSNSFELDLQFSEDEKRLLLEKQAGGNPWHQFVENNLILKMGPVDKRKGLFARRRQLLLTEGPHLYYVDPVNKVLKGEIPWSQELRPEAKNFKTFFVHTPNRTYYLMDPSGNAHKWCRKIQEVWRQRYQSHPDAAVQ
Outline: as §1

[4] = target: T4, PKBα (Homo sapiens, UniProt P31749); conditions: read-out: percentage of control activity (POC), PKBα
T4 construct: purchased Eurofins Pharma Discovery Services (KinaseProfiler; Cerep BioPrint panel)
T4 sequence (P31749 whole entry): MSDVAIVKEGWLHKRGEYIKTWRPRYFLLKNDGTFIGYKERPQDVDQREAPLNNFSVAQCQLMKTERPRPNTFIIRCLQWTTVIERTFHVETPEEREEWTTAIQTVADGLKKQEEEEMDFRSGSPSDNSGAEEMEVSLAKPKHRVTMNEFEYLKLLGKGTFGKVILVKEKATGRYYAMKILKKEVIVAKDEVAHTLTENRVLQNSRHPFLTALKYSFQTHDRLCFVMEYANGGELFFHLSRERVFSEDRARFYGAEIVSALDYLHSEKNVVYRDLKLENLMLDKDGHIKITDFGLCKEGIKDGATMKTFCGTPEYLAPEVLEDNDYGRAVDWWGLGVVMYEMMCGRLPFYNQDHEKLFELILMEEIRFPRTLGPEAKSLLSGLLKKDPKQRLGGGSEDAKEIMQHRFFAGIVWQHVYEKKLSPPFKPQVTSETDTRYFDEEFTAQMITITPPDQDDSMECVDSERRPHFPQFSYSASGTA
Outline: as §1

[5] = target: T5, SAPK3 (Homo sapiens, UniProt P53778); conditions: read-out: percentage of control activity (POC), SAPK3
T5 construct: purchased Eurofins Pharma Discovery Services (KinaseProfiler; Cerep BioPrint panel)
T5 sequence (P53778 1-367): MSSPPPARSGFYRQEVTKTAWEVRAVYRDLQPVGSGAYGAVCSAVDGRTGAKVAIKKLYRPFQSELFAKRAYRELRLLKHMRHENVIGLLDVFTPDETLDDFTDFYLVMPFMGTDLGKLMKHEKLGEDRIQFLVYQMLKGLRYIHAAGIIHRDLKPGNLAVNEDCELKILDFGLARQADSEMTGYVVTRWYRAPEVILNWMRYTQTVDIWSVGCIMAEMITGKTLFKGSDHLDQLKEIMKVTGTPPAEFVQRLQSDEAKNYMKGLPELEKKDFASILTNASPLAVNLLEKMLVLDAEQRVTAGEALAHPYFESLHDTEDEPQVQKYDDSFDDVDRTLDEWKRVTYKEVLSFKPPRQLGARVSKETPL
Outline: as §1

[6] = target: T6, Rsk1 (Homo sapiens, UniProt Q15418); conditions: read-out: percentage of control activity (POC), Rsk1
T6 construct: purchased Eurofins Pharma Discovery Services (KinaseProfiler; Cerep BioPrint panel)
T6 sequence (Q15418 whole entry): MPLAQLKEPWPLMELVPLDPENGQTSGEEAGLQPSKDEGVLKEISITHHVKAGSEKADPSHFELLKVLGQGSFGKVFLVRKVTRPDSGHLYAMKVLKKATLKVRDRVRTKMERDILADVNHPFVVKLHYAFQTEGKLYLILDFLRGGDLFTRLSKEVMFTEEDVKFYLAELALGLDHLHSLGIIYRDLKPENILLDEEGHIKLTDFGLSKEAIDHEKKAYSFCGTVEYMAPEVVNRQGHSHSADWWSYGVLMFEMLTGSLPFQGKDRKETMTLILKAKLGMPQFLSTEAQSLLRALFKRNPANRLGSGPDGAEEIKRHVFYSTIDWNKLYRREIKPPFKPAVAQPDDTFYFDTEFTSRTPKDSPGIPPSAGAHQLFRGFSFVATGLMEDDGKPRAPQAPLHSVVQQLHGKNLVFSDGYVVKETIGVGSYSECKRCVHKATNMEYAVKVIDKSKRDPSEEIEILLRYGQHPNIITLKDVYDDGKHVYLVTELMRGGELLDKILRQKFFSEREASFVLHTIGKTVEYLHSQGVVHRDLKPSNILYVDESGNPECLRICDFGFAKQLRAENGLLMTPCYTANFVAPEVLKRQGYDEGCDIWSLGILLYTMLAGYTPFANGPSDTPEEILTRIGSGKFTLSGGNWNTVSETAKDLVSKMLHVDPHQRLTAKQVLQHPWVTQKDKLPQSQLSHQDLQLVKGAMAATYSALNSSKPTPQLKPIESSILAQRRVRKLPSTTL
Outline: as §1

Structure (SMILES)	remaining activity at 10 µM [1] [%]	remaining activity at 10 µM [2] [%]	remaining activity at 10 µM [3] [%]	remaining activity at 10 µM [4] [%]	remaining activity at 10 µM [5] [%]	remaining activity at 10 µM [6] [%]
Cn1cc(-c2cccc(-c3nc(C(=O)NC4C5CC6CC4CC(O)(C6)C5)c(N)nc3N)c2)cn1 (stereo not drawn) [compound 4]	83	59	118	96	92	87
CS(=O)(=O)N1CCN(c2ccc(Nc3ncc(C(N)=O)c(NC4CC4)n3)cc2)CC1 [compound 5]	85	12	7	86	64	1
COc1c(NC(=O)c2ccc(C)c(-c3nnc4c(NCC(C)(C)C)nccn34)c2)cc(C(C)(C)C)cc1NS(C)(=O)=O [compound 7, reference compound]	56	91	121	99	67	132

Second part, the compound after the results:

remaining activity at 10 µM [1] [%]	remaining activity at 10 µM [2] [%]	remaining activity at 10 µM [3] [%]	remaining activity at 10 µM [4] [%]	remaining activity at 10 µM [5] [%]	remaining activity at 10 µM [6] [%]	Structure (SMILES)
107	98	121	95	75	104	CC(C)(C)N1CCC(c2cc(-c3ccc(F)cc3Cl)c3cc[n+]([O-])c(-c4c(Cl)cccc4Cl)c3n2)CC1 [compound 2]
65	88	98	91	78	100	Cc1ccc(C(=O)NCC2CC2)cc1-c1ccc2c(c1)NC(=O)C21CCCC1 [compound 3]
